Experimental data published in the NIST ThermoML archive (doi:10.1016/j.fluid.2014.04.002).

Assay: xn = mol fraction of the nth substance listed
Conditions: 101 kPa, Liquid; for viscosity: Concentric cylinders viscometry; for mass density: Vibrating tube method

COCCOCCOCCOCCOC [2,5,8,11,14-pentaoxapentadecane] + CCOC(=O)C(C)O
Conditions | mass density [kg/m3] | viscosity [mPa·s]
288.15 K, x2 = 0 | 1016.7 | 4.353
288.15 K, x2 = 0.0999 | 1018.51 | 4.303
288.15 K, x2 = 0.1999 | 1020.55 | 4.265
288.15 K, x2 = 0.2999 | 1022.59 | 4.226
288.15 K, x2 = 0.3998 | 1024.79 | 4.176
288.15 K, x2 = 0.4999 | 1027.14 | 4.109
288.15 K, x2 = 0.6001 | 1029.57 | 4.027
288.15 K, x2 = 0.6998 | 1032.25 | 3.906
288.15 K, x2 = 0.8001 | 1034.95 | 3.746
288.15 K, x2 = 0.9 | 1037.37 | 3.53
293.15 K, x2 = 0 | 1012.06 | 3.795
293.15 K, x2 = 0.0999 | 1013.83 | 3.749
293.15 K, x2 = 0.1999 | 1015.83 | 3.713
293.15 K, x2 = 0.2999 | 1017.82 | 3.673
293.15 K, x2 = 0.3998 | 1019.98 | 3.623
293.15 K, x2 = 0.4999 | 1022.26 | 3.557
293.15 K, x2 = 0.6001 | 1024.61 | 3.478
293.15 K, x2 = 0.6998 | 1027.18 | 3.364
293.15 K, x2 = 0.8001 | 1029.8 | 3.219
293.15 K, x2 = 0.9 | 1032.09 | 3.028
298.15 K, x2 = 0 | 1007.42 | 3.348
298.15 K, x2 = 0.0999 | 1009.15 | 3.299
298.15 K, x2 = 0.1999 | 1011.11 | 3.266
298.15 K, x2 = 0.2999 | 1013.05 | 3.23
298.15 K, x2 = 0.3998 | 1015.17 | 3.181
298.15 K, x2 = 0.4999 | 1017.37 | 3.115
298.15 K, x2 = 0.6001 | 1019.64 | 3.036
298.15 K, x2 = 0.6998 | 1022.11 | 2.929
298.15 K, x2 = 0.8001 | 1024.63 | 2.8
298.15 K, x2 = 0.9 | 1026.8 | 2.633
303.15 K, x2 = 0 | 1002.79 | 2.983
303.15 K, x2 = 0.0999 | 1004.48 | 2.933
303.15 K, x2 = 0.1999 | 1006.39 | 2.9
303.15 K, x2 = 0.2999 | 1008.28 | 2.864
303.15 K, x2 = 0.3998 | 1010.34 | 2.815
303.15 K, x2 = 0.4999 | 1012.47 | 2.752
303.15 K, x2 = 0.6001 | 1014.66 | 2.681
303.15 K, x2 = 0.6998 | 1017.03 | 2.58
303.15 K, x2 = 0.8001 | 1019.45 | 2.463
303.15 K, x2 = 0.9 | 1021.49 | 2.311
308.15 K, x2 = 0 | 998.153 | 2.668
308.15 K, x2 = 0.0999 | 999.806 | 2.626
308.15 K, x2 = 0.1999 | 1001.67 | 2.593
308.15 K, x2 = 0.2999 | 1003.5 | 2.557
308.15 K, x2 = 0.3998 | 1005.51 | 2.511
308.15 K, x2 = 0.4999 | 1007.57 | 2.452
308.15 K, x2 = 0.6001 | 1009.68 | 2.385
308.15 K, x2 = 0.6998 | 1011.95 | 2.293
308.15 K, x2 = 0.8001 | 1014.25 | 2.184
308.15 K, x2 = 0.9 | 1016.16 | 2.046
313.15 K, x2 = 0 | 993.523 | 2.407
313.15 K, x2 = 0.0999 | 995.132 | 2.367
313.15 K, x2 = 0.1999 | 996.945 | 2.336
313.15 K, x2 = 0.2999 | 998.729 | 2.301
313.15 K, x2 = 0.3998 | 1000.64 | 2.257
313.15 K, x2 = 0.4999 | 1002.66 | 2.2
313.15 K, x2 = 0.6001 | 1004.68 | 2.137
313.15 K, x2 = 0.6998 | 1006.87 | 2.053
313.15 K, x2 = 0.8001 | 1009.04 | 1.953
313.15 K, x2 = 0.9 | 1010.8 | 1.827
318.15 K, x2 = 0 | 988.892 | 2.185
318.15 K, x2 = 0.0999 | 990.453 | 2.147
318.15 K, x2 = 0.1999 | 992.217 | 2.115
318.15 K, x2 = 0.2999 | 993.944 | 2.081
318.15 K, x2 = 0.3998 | 995.8 | 2.041
318.15 K, x2 = 0.4999 | 997.738 | 1.991
318.15 K, x2 = 0.6001 | 999.671 | 1.932
318.15 K, x2 = 0.6998 | 1001.77 | 1.854
318.15 K, x2 = 0.8001 | 1003.81 | 1.76
318.15 K, x2 = 0.9 | 1005.43 | 1.642
323.15 K, x2 = 0 | 984.262 | 2.003
323.15 K, x2 = 0.0999 | 985.775 | 1.972
323.15 K, x2 = 0.1999 | 987.487 | 1.943
323.15 K, x2 = 0.2999 | 989.156 | 1.91
323.15 K, x2 = 0.3998 | 990.94 | 1.87
323.15 K, x2 = 0.4999 | 992.806 | 1.818
323.15 K, x2 = 0.6001 | 994.651 | 1.763
323.15 K, x2 = 0.6998 | 996.689 | 1.69
323.15 K, x2 = 0.8001 | 998.562 | 1.605
323.15 K, x2 = 0.9 | 1000.06 | 1.496
